# Experimental data published in ChEMBL document CHEMBL1155953, “Synthesis and biological evaluation of C-12' substituted vinflunine derivatives” (Bioorg Med Chem Lett, 2008).
# Test system: A549
# Assay: Cytotoxicity against human A549 cells by SRB assay
# Type: functional, cell-based
row,Structure (SMILES),IC50 [µM]
1,CC[C@]12C=CCN3CC[C@@]4(c5cc([C@@]6(C(=O)OC)C[C@H]7C[C@@H](C(C)(F)F)CN(Cc8c6[nH]c6ccc(NC)cc86)C7)c(OC)cc5N(C)[C@H]4[C@@](O)(C(=O)OC)[C@@H]1OC(C)=O)[C@@H]32,6.91
2,CC[C@]12C=CCN3CC[C@@]4(c5cc([C@@]6(C(=O)OC)C[C@H]7C[C@@H](C(C)(F)F)CN(Cc8c6[nH]c6ccc(CNCCO)cc86)C7)c(OC)cc5N(C)[C@H]4[C@@](O)(C(=O)OC)[C@@H]1OC(C)=O)[C@@H]32,95.5
3,CC[C@]12C=CCN3CC[C@@]4(c5cc([C@@]6(C(=O)OC)C[C@H]7C[C@@H](C(C)(F)F)CN(Cc8c6[nH]c6ccc(CNCCCN9CCOCC9)cc86)C7)c(OC)cc5N(C)[C@H]4[C@@](O)(C(=O)OC)[C@@H]1OC(C)=O)[C@@H]32,> 100
4,CC[C@]12C=CCN3CC[C@@]4(c5cc([C@@]6(C(=O)OC)C[C@H]7C[C@@H](C(C)(F)F)CN(Cc8c6[nH]c6ccc(CN9CCOCC9)cc86)C7)c(OC)cc5N(C)[C@H]4[C@@](O)(C(=O)OC)[C@@H]1OC(C)=O)[C@@H]32,3.93
5,CC[C@]12C=CCN3CC[C@@]4(c5cc([C@@]6(C(=O)OC)C[C@H]7C[C@@H](C(C)(F)F)CN(CCc8c6[nH]c6ccc(N)cc86)C7)c(OC)cc5N(C)[C@H]4[C@@](O)(C(=O)OC)[C@@H]1OC(C)=O)[C@@H]32,37.8
6,CC[C@]12C=CCN3CC[C@@]4(c5cc([C@@]6(C(=O)OC)C[C@H]7C[C@@H](C(C)(F)F)CN(CCc8c6[nH]c6ccc(N(C)C)cc86)C7)c(OC)cc5N(C)[C@H]4[C@@](O)(C(=O)OC)[C@@H]1OC(C)=O)[C@@H]32,0.22
7,CCCCNCc1ccc2[nH]c3c(c2c1)CN1C[C@H](C[C@@H](C(C)(F)F)C1)C[C@]3(C(=O)OC)c1cc2c(cc1OC)N(C)[C@H]1[C@@](O)(C(=O)OC)[C@H](OC(C)=O)[C@]3(CC)C=CCN4CC[C@]21[C@@H]43,1.74
8,CC[C@]12C=CCN3CC[C@@]4(c5cc([C@@]6(C(=O)OC)C[C@H]7C[C@@H](C(C)(F)F)CN(Cc8c6[nH]c6ccc(CNCCN9CCOCC9)cc86)C7)c(OC)cc5N(C)[C@H]4[C@@](O)(C(=O)OC)[C@@H]1OC(C)=O)[C@@H]32,> 100
9,CC[C@]12C=CCN3CC[C@@]4(c5cc([C@@]6(C(=O)OC)C[C@H]7C[C@@H](C(C)(F)F)CN(Cc8c6[nH]c6ccc(CNc9ccc(OC)cc9)cc86)C7)c(OC)cc5N(C)[C@H]4[C@@](O)(C(=O)OC)[C@@H]1OC(C)=O)[C@@H]32,3.52
10,CC[C@]12C=CCN3CC[C@@]4(c5cc([C@@]6(C(=O)OC)C[C@@H]7C[C@@H](C(C)(F)F)CN(Cc8c6[nH]c6ccccc86)C7)c(OC)cc5N(C)[C@H]4[C@@](O)(C(=O)OC)[C@@H]1OC(C)=O)[C@@H]32 [VINFLUNINE],0.08
